Consider 11 molecules from patent publication US20160289236A1, “Protein Kinase Inhibitors” (PHARMASCIENCE INC., priority 2013, published 2016).

The test system of one assay is splenocytes. In words: Splenic cell proliferation assay (anti-IgM stimulated, Cell Titer-Glo). Type of assay: cell-based. The following applies: Splenocyte; CD1 mouse splenocytes, 2.5 ug/ml anti-IgM F(ab')2 for 72 h, 1 h compound pre-treatment; read-out: EC50 (nM), Inhibition of splenic cell proliferation. How it is done:
Proliferation of splenocytes in response to anti-IgM can be blocked by inhibition of Btk. Splenocytes were obtained from 6 week old male CD1 mice (Charles River Laboratories Inc.). Mouse spleens were manually disrupted in PBS and filtered using a 70 um cell strainer followed by ammonium chloride red blood cell lysis. Cells were washed, resuspended in Splenocyte Medium (HyClone RPMI supplemented with 10% heat-inactivated FBS, 0.5× non-essential amino acids, 10 mM HEPES, 50 uM beta mercaptoethanol), and incubated at 37° C., 5% CO2 for 2 h, to remove adherent cells. Suspension cells were seeded in 96 well plates, at 50,000 cells per well, and incubated at 37° C., 5% CO2 for 1 h. Splenocytes were pre-treated in triplicate with 10,000 nM curves of Formula I, compounds for 1 h, followed by stimulation of cell proliferation with 2.5 ug/ml anti-IgM F(ab′)2 (Jackson Immuno Research) for 72 h. Cell proliferation was measured by Cell Titer-Glo Luminescent Assay (Promega). EC50 values (50% proliferation in the presence of compound, as compared to vehicle treated controls) were calculated from dose response compound curves using GraphPad Prism Software.
A general note: In ATP-based viability assays light output follows the ATP content of the culture.

Assay [1] addresses T1, histidine tagged recombinant human full-length Bruton Agammaglobulinemia Tyrosine Kinase (Btk) (Homo sapiens, UniProt Q06187).
T1 construct: histidine tagged recombinant human full-length Bruton Agammaglobulinemia Tyrosine Kinase (Btk); His tag
In words: Btk kinase inhibition assay, Method A (fluorescence polarization, KinEASE FP Fluorescein Green). It counts as biochemical. The following applies: 10 μM ATP, 250 μM substrate, 60 minutes, Ki calculated from IC50 with Cheng-Prusoff equation. Here is the method:
Fluorescence polarization-based kinase assays were performed in 384 well-plate format using histidine tagged recombinant human full-length Bruton Agammaglobulinemia Tyrosine Kinase (Btk), and a modified protocol of the KinEASE™ FP Fluorescein Green Assay supplied from Millipore®. Kinase reaction were performed at room temperature for 60 minutes, in presence of 250 μM substrate, 10 μM ATP, and variable test article concentrations. The reaction was stopped with EDTA/kinease detection reagents. Phosphorylation of the substrate peptide was detected by fluorescence polarization, measured with a Tecan 500 instrument. From the dose-response curve obtained, the IC50 was calculated using Graph Pad Prisms®, using a non linear fit curve. The Km for ATP on each enzyme was experimentally determined and the Ki values calculated using the Cheng-Prusoff equation (see: Cheng Y, Prusoff W H. (1973) Relationship between the inhibition constant (K1), and the concentration of inhibitor which causes 50% inhibition (I50) of an enzymatic reaction”. Biochem Pharmacol 22 (23): 3099-108).

The target of a further assay is T2, human BTK kinase (hBTK) (Homo sapiens, UniProt Q06187).
T2 construct: purchased Eurofins Pharma Discovery Services UK Limited
T2 sequence (Q06187 whole entry): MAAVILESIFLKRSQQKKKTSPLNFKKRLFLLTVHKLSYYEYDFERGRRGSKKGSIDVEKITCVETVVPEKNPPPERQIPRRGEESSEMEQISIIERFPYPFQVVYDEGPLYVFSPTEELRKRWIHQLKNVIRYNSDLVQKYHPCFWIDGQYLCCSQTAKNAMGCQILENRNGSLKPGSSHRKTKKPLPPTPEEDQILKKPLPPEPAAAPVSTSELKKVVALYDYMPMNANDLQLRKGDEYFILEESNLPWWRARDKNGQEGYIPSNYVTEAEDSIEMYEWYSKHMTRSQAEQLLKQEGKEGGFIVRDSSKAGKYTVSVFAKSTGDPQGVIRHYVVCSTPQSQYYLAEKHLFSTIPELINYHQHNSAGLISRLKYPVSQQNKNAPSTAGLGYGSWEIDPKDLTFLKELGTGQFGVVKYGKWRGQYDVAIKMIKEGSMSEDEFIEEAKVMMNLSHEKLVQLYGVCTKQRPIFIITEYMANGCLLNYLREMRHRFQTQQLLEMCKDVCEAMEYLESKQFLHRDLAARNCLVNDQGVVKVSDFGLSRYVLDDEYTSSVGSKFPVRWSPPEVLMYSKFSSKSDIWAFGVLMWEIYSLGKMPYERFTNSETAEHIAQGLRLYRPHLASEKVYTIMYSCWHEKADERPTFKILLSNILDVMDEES
In words: Btk kinase inhibition assay, Method B (KinaseProfiler radiometric protein kinase assay, Eurofins). Conditions: [γ-33P-ATP], 250 μM substrate, 40 minutes. It counts as biochemical. Here is the method:
In vitro potency of selected compound was defined against human BTK kinase (hBTK) using KinaseProfiler radiometric protein kinase assays performed at Eurofins Pharma Discovery Services UK Limited.
hBTK kinase is diluted in buffer and all compounds were prepared to 50× final assay concentration in 100% DMSO. This working stock of the compound was added to the assay well as the first component in the reaction, followed by the remaining components as detailed in the assay protocol listed above. The reaction was initiated by the addition of the MgATP mix. The kinase reaction was performed at room temperature for 40 minutes, in presence of 250 μM substrate, 10 mM MgAcetate, [γ-33P-ATP] (specific activity approx. 500 cpm/pmol, concentration as required) and variable test article concentrations. The ATP concentrations in the assays were with 15 μM of the apparent. The reaction was stopped by the addition of 3% phosphoric acid solution. 10 μL of the reaction is then spotted onto a P30 filtermat and washed three times for 5 minutes in 75 mM phosphoric acid and once in methanol, prior to drying, and scintillation counting. […]

T1 sequence (Q06187 whole entry): as above

Turning to `Cc1ncc(COc2cc(F)cc(Oc3ccc(-n4cc(C5CCCC5)c5ncnc(N)c54)cc3)c2)cn1` [Compound 8], the EC50 in the assay on splenocytes was below 100 nM.

By Ki is commonly meant a dissociation constant, usually derived from enzyme kinetics or from competition with a known ligand. Consider `Cc1ncc(COc2cc(F)cc(Oc3ccc(-n4cc(C5CCOCC5)c5ncnc(N)c54)cc3)c2)s1` [Compound 6], for which, in the assay with splenocytes, the EC50 was below 100 nM. Besides, in assay [1], the inhibitory constant (Ki) was below 100 nM.

On to `Cc1ncc(COc2cc(F)cc(Oc3ccc(-n4cc(C5CCCC5)c5ncnc(N)c54)cc3)c2)s1` [Compound 3], for which, in the assay on splenocytes, the EC50 was below 100 nM.

Consider `Cc1ncc(COc2cc(F)cc(Oc3ccc(-n4cc(C5CC(CO)C5)c5ncnc(N)c54)cc3)c2)cn1` (stereo not drawn) [Compound 10], for which the EC50 with splenocytes was below 100 nM.

For `Cc1ncc(COc2cc(F)cc(Oc3ccc(-n4cc(C5CCOCC5)c5ncnc(N)c54)cc3)c2)cn1` [Compound 7], in the assay on splenocytes, the EC50 was below 100 nM. The inhibition constant (Ki) in assay [1] was below 100 nM.

Turning to `Cc1ncc(COc2cc(F)cc(Oc3ccc(-n4cc(C(C)C)c5ncnc(N)c54)cc3)c2)cn1` [Compound 9], the EC50 with splenocytes was below 100 nM. Besides, the Ki in assay [1] was below 100 nM.

As to `Cc1ncc(COc2cc(F)cc(Oc3ccc(-n4cc(C(C)C)c5ncnc(N)c54)cc3)c2)s1` [Compound 2], the EC50 with splenocytes is below 100 nM. In assay [1], the Ki is below 100 nM.

On to `Cc1ccc(COc2cc(F)cc(Oc3ccc(-n4cc(C(C)C)c5ncnc(N)c54)cc3)c2)cn1` [Compound 1], for which the EC50 with splenocytes was below 100 nM. In addition, the Ki in assay [1] is below 100 nM.

Take `Cc1ncc(COc2cc(F)cc(Oc3ccc(-n4cc([C@H]5C[C@@H](O)C5)c5ncnc(N)c54)cc3)c2)cn1` [Compound 11]: the EC50 on human BTK kinase (hBTK) and in the assay on splenocytes was below 100 nM in each case.

As to `Cc1ccc(COc2cc(F)cc(Oc3ccc(-n4cc(C5CCCC5)c5ncnc(N)c54)cc3)c2)cn1` [Compound 4], in the assay on splenocytes, the EC50 was below 100 nM.

In the case of `Cc1ccc(COc2cc(F)cc(Oc3ccc(-n4cc(C5CCOCC5)c5ncnc(N)c54)cc3)c2)cn1` [Compound 5], the EC50 with splenocytes was below 100 nM. The inhibition constant Ki in assay [1] was below 100 nM.
